Assay results taken from the kinase profiling compilation of Christmann-Franck et al. (2016).

Legend:
Assay in all cases: radiometric filter-binding kinase assay, Kinase HotSpot
Conditions in all cases: compound 0.5 µM; ATP 10 µM
NEK6 (human) = NEK6 (human) (UniProt Q9HC98)
OXSR1 (human) = OXSR1 (human) (UniProt O95747)
TTK (human) = TTK (human) (UniProt P33981)
MUSK (human) = MUSK (human) (UniProt O15146)
PRKCB1 (human) = PRKCB1 (human) (UniProt P05771)
EPHA2 (human) = EPHA2 (human) (UniProt P29317)
Chain of EPHA2 (human) (P29317 whole entry, looked up): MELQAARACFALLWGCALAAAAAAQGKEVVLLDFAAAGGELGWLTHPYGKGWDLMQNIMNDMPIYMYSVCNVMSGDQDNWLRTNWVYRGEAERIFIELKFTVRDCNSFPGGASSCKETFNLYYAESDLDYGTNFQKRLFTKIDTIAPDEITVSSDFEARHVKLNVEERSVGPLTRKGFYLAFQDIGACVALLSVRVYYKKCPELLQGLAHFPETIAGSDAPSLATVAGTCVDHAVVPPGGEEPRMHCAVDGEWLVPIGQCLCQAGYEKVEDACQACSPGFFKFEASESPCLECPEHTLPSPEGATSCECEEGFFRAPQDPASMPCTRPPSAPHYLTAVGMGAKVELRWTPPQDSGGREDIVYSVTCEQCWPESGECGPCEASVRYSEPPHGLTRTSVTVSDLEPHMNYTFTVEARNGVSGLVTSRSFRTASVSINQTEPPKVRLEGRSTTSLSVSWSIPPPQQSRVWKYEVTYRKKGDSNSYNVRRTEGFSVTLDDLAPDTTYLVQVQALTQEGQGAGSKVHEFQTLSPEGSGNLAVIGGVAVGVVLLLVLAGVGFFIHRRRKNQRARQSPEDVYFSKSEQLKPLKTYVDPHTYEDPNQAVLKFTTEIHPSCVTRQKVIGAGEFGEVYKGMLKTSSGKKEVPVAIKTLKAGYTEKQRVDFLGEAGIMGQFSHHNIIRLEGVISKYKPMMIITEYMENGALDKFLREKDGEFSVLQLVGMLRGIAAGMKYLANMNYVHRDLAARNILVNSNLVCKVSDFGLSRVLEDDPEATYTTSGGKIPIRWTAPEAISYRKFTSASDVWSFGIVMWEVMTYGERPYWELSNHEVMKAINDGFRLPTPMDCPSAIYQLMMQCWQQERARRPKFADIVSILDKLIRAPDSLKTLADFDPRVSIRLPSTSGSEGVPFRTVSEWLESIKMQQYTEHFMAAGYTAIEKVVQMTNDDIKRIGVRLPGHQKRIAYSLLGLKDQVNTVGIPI

MET (human) = MET (human) (UniProt P08581)
ADRBK2 (human) = ADRBK2 (human) (UniProt P35626)
PRKG2 (human) = PRKG2 (human) (UniProt Q13237)
HCK (human) = HCK (human) (UniProt P08631)
Chain of HCK (human) (P08631 whole entry, looked up): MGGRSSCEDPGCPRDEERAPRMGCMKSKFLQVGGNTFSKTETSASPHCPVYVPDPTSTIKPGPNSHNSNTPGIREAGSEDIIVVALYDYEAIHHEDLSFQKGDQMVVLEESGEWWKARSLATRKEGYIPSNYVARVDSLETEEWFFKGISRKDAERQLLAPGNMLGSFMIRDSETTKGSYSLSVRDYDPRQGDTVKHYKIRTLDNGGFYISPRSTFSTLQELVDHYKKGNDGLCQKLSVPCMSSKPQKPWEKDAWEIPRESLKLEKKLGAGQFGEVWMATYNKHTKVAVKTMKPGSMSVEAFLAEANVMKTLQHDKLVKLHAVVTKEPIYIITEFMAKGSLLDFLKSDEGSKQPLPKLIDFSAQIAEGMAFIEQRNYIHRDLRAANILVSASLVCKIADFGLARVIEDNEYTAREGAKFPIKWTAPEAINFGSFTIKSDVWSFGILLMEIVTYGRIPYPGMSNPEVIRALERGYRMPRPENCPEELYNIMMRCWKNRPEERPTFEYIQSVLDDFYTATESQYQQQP

CAMK2A (human) = CAMK2A (human) (UniProt Q9UQM7)
Chain of CAMK2A (human) (Q9UQM7 whole entry, looked up): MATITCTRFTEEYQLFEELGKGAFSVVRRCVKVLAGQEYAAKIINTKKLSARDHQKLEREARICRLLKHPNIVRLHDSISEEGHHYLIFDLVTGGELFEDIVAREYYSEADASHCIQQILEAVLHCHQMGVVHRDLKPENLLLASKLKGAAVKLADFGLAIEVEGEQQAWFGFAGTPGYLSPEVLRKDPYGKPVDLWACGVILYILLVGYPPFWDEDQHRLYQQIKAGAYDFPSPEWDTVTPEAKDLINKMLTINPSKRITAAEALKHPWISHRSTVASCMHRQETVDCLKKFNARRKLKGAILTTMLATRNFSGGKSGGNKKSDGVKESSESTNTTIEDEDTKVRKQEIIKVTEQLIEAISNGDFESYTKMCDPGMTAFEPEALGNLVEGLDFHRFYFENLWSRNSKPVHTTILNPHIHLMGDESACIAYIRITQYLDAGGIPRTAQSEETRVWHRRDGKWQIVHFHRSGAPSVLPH

INSR (human) = INSR (human) (UniProt P06213)
TGFBR2 (human) = TGFBR2 (human) (UniProt P37173)
Chain of TGFBR2 (human) (P37173 whole entry, looked up): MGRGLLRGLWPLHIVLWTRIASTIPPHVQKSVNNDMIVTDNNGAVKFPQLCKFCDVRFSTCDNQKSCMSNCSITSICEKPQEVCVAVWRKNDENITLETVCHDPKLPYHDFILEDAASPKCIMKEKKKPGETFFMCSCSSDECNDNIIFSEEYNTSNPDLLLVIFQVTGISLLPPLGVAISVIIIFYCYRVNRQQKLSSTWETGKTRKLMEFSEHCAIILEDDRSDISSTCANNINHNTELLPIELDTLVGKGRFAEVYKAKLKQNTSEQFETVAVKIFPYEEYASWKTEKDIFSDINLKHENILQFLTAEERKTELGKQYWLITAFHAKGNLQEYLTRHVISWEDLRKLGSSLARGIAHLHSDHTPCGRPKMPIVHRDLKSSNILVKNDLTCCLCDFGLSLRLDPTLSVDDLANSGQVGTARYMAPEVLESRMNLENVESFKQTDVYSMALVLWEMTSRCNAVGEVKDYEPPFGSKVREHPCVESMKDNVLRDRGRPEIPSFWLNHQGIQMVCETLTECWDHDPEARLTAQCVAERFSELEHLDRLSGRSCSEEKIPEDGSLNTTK

NUAK2 (human) = NUAK2 (human) (UniProt Q9H093)
MARK1 (human) = MARK1 (human) (UniProt Q9P0L2)
PTK2 (human) = PTK2 (human) (UniProt Q05397)
NTRK3 (human) = NTRK3 (human) (UniProt Q16288)
Chain of NTRK3 (human) (Q16288 whole entry, looked up): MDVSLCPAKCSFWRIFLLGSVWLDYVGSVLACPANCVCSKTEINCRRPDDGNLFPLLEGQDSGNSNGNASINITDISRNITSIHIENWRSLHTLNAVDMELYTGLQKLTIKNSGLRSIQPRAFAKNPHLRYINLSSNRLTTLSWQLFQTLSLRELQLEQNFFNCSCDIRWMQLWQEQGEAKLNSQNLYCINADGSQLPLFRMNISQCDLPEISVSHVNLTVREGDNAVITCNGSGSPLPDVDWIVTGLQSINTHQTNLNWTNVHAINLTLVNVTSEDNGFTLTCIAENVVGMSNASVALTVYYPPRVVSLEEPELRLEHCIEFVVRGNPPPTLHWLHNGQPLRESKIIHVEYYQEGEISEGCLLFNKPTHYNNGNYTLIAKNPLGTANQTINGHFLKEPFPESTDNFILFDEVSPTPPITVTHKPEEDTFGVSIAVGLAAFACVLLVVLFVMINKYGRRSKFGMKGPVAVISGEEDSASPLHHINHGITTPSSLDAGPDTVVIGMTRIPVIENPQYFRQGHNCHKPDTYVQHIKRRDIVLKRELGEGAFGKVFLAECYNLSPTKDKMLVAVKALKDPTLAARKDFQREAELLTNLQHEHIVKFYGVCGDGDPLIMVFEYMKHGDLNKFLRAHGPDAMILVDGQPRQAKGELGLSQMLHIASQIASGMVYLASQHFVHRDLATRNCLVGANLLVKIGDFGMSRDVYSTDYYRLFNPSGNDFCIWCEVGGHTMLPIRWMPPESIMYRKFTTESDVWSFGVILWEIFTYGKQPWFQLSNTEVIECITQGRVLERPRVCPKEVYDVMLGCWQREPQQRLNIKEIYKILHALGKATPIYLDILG

MATK (human) = MATK (human) (UniProt P42679)
Chain of MATK (human) (P42679 whole entry, looked up): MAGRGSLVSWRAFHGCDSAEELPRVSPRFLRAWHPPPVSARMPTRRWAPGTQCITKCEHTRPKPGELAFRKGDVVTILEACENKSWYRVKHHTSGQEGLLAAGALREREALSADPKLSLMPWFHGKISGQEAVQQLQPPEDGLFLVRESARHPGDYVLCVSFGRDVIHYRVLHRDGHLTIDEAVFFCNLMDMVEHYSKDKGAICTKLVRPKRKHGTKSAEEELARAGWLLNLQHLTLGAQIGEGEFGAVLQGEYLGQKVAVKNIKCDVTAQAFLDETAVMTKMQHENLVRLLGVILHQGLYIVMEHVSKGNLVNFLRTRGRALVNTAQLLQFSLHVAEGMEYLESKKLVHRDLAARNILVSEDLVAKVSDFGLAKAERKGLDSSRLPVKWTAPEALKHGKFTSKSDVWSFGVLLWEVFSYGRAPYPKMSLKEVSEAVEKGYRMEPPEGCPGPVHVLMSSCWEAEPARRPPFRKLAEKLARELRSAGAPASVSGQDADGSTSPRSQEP

FYN (human) = FYN (human) (UniProt P06241)
PRKX (human) = PRKX (human) (UniProt P51817)
Chain of PRKX (human) (P51817 whole entry, looked up): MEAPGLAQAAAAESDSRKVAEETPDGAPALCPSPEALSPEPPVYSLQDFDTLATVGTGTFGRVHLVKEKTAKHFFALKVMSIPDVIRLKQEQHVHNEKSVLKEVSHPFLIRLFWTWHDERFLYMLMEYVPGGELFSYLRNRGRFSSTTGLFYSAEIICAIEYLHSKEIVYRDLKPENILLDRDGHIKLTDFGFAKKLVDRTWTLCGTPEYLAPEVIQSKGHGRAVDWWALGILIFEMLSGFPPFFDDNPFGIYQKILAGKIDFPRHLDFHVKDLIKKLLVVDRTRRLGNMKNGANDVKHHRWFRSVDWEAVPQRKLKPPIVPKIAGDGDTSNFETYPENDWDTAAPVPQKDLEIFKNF

NEK1 (human) = NEK1 (human) (UniProt Q96PY6)
MAPK9 (human) = MAPK9 (human) (UniProt P45984)
SLK (human) = SLK (human) (UniProt Q9H2G2)
EPHA3 (human) = EPHA3 (human) (UniProt P29320)
STK24 (human) = STK24 (human) (UniProt Q9Y6E0)
CDC42BPB (human) = CDC42BPB (human) (UniProt Q9Y5S2)
PAK2 (human) = PAK2 (human) (UniProt Q13177)
EPHA8 (human) = EPHA8 (human) (UniProt P29322)
NEK7 (human) = NEK7 (human) (UniProt Q8TDX7)
CAMK4 (human) = CAMK4 (human) (UniProt Q16566)
CAMK2G (human) = CAMK2G (human) (UniProt Q13555)
RIPK2 (human) = RIPK2 (human) (UniProt O43353)
IKBKE (human) = IKBKE (human) (UniProt Q14164)
FGFR1 (human) = FGFR1 (human) (UniProt P11362)
RPS6KA6 KD1 KD2 (human) = RPS6KA6 KD1 KD2 (human) (UniProt Q9UK32)
DYRK3 (human) = DYRK3 (human) (UniProt O43781)
MST4 (human) = MST4 (human) (UniProt Q9P289)
PIM1 (human) = PIM1 (human) (UniProt P11309)
CSNK1G2 (human) = CSNK1G2 (human) (UniProt P78368)
SRPK3 (human) = SRPK3 (human) (UniProt Q9UPE1)
MAP4K5 (human) = MAP4K5 (human) (UniProt Q9Y4K4)
PTK6 (human) = PTK6 (human) (UniProt Q13882)

Chain of PRKCB1 (human) (P05771 whole entry, looked up): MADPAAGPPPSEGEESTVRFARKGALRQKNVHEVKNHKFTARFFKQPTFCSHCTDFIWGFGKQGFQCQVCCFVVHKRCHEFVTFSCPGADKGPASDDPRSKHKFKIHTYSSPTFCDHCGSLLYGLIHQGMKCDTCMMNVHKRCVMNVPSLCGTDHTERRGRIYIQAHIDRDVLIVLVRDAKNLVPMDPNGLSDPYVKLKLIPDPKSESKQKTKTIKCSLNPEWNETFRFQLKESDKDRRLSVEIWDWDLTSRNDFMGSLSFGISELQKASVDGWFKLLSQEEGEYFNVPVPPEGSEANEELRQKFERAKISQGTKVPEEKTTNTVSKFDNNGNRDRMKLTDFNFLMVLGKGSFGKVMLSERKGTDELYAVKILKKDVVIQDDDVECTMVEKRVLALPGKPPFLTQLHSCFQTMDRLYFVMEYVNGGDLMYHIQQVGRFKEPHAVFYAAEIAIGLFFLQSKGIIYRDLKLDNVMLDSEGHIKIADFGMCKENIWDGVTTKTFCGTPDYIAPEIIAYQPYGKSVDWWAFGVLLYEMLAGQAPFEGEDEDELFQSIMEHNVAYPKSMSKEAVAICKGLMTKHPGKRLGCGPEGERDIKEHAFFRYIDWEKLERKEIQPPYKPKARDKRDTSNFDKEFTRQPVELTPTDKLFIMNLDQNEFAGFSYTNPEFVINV

Compound: O=C1NC(=O)C(c2cn(CCCn3ccnc3)c3ccccc23)=C1Nc1ccccc1
- residual activity (NEK6 (human)): 93.6%
- residual activity (OXSR1 (human)): 97.2%
- residual activity (TTK (human)): 121%
- residual activity (MUSK (human)): 51.6%
- residual activity (PRKCB1 (human)): 9.78%
- residual activity (EPHA2 (human)): 101%
- residual activity (MET (human)): 100%
- residual activity (ADRBK2 (human)): 97.9%
- residual activity (PRKG2 (human)): 80.3%
- residual activity (HCK (human)): 97.9%
- residual activity (CAMK2A (human)): 95.5%
- residual activity (INSR (human)): 84.4%
- residual activity (TGFBR2 (human)): 134%
- residual activity (NUAK2 (human)): 113%
- residual activity (MARK1 (human)): 93.6%
- residual activity (PTK2 (human)): 104%
- residual activity (NTRK3 (human)): 40%
- residual activity (MATK (human)): 89.8%
- residual activity (FYN (human)): 102%
- residual activity (PRKX (human)): 95.5%
- residual activity (NEK1 (human)): 114%
- residual activity (MAPK9 (human)): 101%
- residual activity (SLK (human)): 39.1%
- residual activity (EPHA3 (human)): 102%
- residual activity (STK24 (human)): 51.7%
- residual activity (CDC42BPB (human)): 105%
- residual activity (PAK2 (human)): 88.5%
- residual activity (EPHA8 (human)): 104%
- residual activity (NEK7 (human)): 102%
- residual activity (CAMK4 (human)): 103%
- residual activity (CAMK2G (human)): 90.9%
- residual activity (RIPK2 (human)): 84.3%
- residual activity (IKBKE (human)): 87%
- residual activity (FGFR1 (human)): 78.5%
- residual activity (RPS6KA6 KD1 KD2 (human)): 2%
- residual activity (DYRK3 (human)): 103%
- residual activity (MST4 (human)): 22.2%
- residual activity (PIM1 (human)): 79.1%
- residual activity (CSNK1G2 (human)): 95.4%
- residual activity (SRPK3 (human)): 92.5%
- residual activity (MAP4K5 (human)): 66.5%

Compound: O=S(=O)(c1cccc2cnccc12)N1CCCNCC1
- residual activity (NEK6 (human)): 97.6%
- residual activity (TTK (human)): 99.1%
- residual activity (MUSK (human)): 97.6%
- residual activity (PRKCB1 (human)): 94.6%
- residual activity (EPHA2 (human)): 102%
- residual activity (ADRBK2 (human)): 100%
- residual activity (PRKG2 (human)): 98.9%
- residual activity (HCK (human)): 95.9%
- residual activity (CAMK2A (human)): 99.9%
- residual activity (INSR (human)): 95%
- residual activity (TGFBR2 (human)): 97%
- residual activity (NUAK2 (human)): 83.5%
- residual activity (MARK1 (human)): 98.6%
- residual activity (PTK2 (human)): 93.9%
- residual activity (NTRK3 (human)): 85.5%
- residual activity (MATK (human)): 99.6%
- residual activity (FYN (human)): 106%
- residual activity (PRKX (human)): 23.5%
- residual activity (NEK1 (human)): 90.3%
- residual activity (MAPK9 (human)): 87%
- residual activity (SLK (human)): 95.8%
- residual activity (EPHA3 (human)): 105%
- residual activity (PTK6 (human)): 96.1%
- residual activity (STK24 (human)): 70.2%
- residual activity (EPHA8 (human)): 106%
- residual activity (NEK7 (human)): 97.5%
- residual activity (CAMK4 (human)): 92.9%
- residual activity (CAMK2G (human)): 93.1%
- residual activity (RIPK2 (human)): 86.4%
- residual activity (FGFR1 (human)): 94.6%
- residual activity (RPS6KA6 KD1 KD2 (human)): 94%
- residual activity (DYRK3 (human)): 89.1%
- residual activity (MST4 (human)): 90%
- residual activity (PIM1 (human)): 77%
- residual activity (CSNK1G2 (human)): 93.7%
- residual activity (SRPK3 (human)): 96.4%
- residual activity (MAP4K5 (human)): 36.3%

Compound: c1ccc(-c2n[nH]c3c2oc2ccccc23)cc1
- residual activity (NEK6 (human)): 99%
- residual activity (OXSR1 (human)): 101%
- residual activity (TTK (human)): 95.7%
- residual activity (MUSK (human)): 72.6%
- residual activity (PRKCB1 (human)): 103%
- residual activity (EPHA2 (human)): 105%
- residual activity (MET (human)): 98.4%
- residual activity (ADRBK2 (human)): 119%
- residual activity (PRKG2 (human)): 109%
- residual activity (HCK (human)): 111%
- residual activity (CAMK2A (human)): 110%
- residual activity (INSR (human)): 94.4%
- residual activity (TGFBR2 (human)): 94.1%
- residual activity (NUAK2 (human)): 95.2%
- residual activity (MARK1 (human)): 98.6%
- residual activity (PTK2 (human)): 94.7%
- residual activity (NTRK3 (human)): 42.7%
- residual activity (MATK (human)): 94%
- residual activity (FYN (human)): 104%
- residual activity (PRKX (human)): 79.8%
- residual activity (NEK1 (human)): 95.2%
- residual activity (MAPK9 (human)): 96.5%
- residual activity (SLK (human)): 107%
- residual activity (EPHA3 (human)): 104%
- residual activity (STK24 (human)): 75.3%
- residual activity (CDC42BPB (human)): 99%
- residual activity (PAK2 (human)): 92.3%
- residual activity (EPHA8 (human)): 102%
- residual activity (NEK7 (human)): 105%
- residual activity (CAMK4 (human)): 93.7%
- residual activity (CAMK2G (human)): 93.3%
- residual activity (RIPK2 (human)): 78.8%
- residual activity (IKBKE (human)): 101%
- residual activity (FGFR1 (human)): 85.9%
- residual activity (RPS6KA6 KD1 KD2 (human)): 107%
- residual activity (DYRK3 (human)): 93%
- residual activity (MST4 (human)): 90.6%
- residual activity (PIM1 (human)): 83.3%
- residual activity (CSNK1G2 (human)): 86.4%
- residual activity (SRPK3 (human)): 94.5%
- residual activity (MAP4K5 (human)): 36.6%
